Assay results taken from patent US20220363686A1 (AiCuris GmbH & Co. KG, priority 2018, published 2022).
Like-named read-outs stand apart in the source and are kept apart here.

Columns and labels:
HBV = test: Determination of HBV DNA from the supernatants of HepAD38 cells (anti-HBV activity); type: cell-based, hepatitis B virus; conditions: HBV DNA in HepAD38 supernatant, day 6, qPCR, read-out: Cell Activity
Outline: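 HepAD38 cells (60,000/well) seeded in tetracycline-free medium to induce HBV, treated with half-log serial compound dilutions for 6 days at 37 °C. HBV DNA purified from filtered supernatant and quantified by real-time PCR against HBV plasmid standards; EC50 from relative copy numbers by non-linear regression.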

HepAD38 cells = test: Cell viability assay (AlamarBlue); conditions: 0.3 μg/ml tetracycline, six days incubation, AlamarBlue
Experimental: (§1) Using the AlamarBlue viability assay cytotoxicity was evaluated in HepAD38 cells in the presence of 0.3 μg/ml tetracycline, which blocks the expression of the HBV genome. Assay condition and plate layout were in analogy to the anti-HBV assay, however other controls were used. On each assay plate six wells containing untreated HepAD38 cells were used as the 100% viability control, and six wells filled with assay medium only were used as 0% viability control. In addition, a geometric concentration series of cycloheximide starting at 60 μM final assay concentration was used as positive control in each experiment. After six days incubation period Alamar Blue Presto cell viability reagent (ThermoFisher, Dreieich) was added in 1/11 dilution to each well of the assay plate. After an incubation for 30 to 45 min at 37° C. the fluorescence signal, which is proportional to the number of living cells, was read using a Tecan Spectrafluor Plus plate reader with an excitation filter 550 nm and emission filter 595 nm, respectively. Data were normalized into percentages of the untreated control (100% viability) and assay medium (0% viability) before CC50 values were calculated using non-linear regression and the GraphPad Prism 6.0 (GraphPad Software, La Jolla, USA). Mean EC50 and CC50 values were used to calculate the selectivity index (SI=CC50/EC50) for each test compound.

[1] = molecular target: HBV core protein (C-terminal truncated core protein containing 149 amino acids of the N-terminal assembly domain) (UniProt P03146); test: Biochemical capsid assembly assay (fluorescence quenching); parameters: rows headed: Assembly Activity; other: BODIPY-FL labelled core protein, assembly started with NaCl, read after 6 min; conditions: read-out: Assembly Activity; BODIPY-FL labelled core protein, assembly started with NaCl, read after 6 min
HBV core protein (C-terminal truncated core protein containing 149 amino acids of the N-terminal assembly domain), sequence (P03146 whole entry, the tested form may be a part): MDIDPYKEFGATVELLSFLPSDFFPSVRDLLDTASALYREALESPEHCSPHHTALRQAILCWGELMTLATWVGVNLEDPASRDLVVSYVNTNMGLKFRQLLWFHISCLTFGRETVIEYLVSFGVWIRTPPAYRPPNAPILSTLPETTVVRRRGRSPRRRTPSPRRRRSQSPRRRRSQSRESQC
Outline: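 N-terminal assembly domain (residues 1–149) plus C-terminal Cys150, E. coli-expressed, BODIPY-FL-maleimide labelled, used at 1.0–2.0 μM in 50 mM HEPES pH 7.5 with 0.5% DMSO. Assembly started with NaCl ([…]); fluorescence quenching (ex 477/em 525 nm) read after 6 min. 8-point compound series; EC50 by non-linear regression.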

[2] = Cell viability assay (AlamarBlue); conditions: human, HepAD38 cells
Experimental: as §1

[3] = Hepatitis B virus, HePAD38, 144 h

Row | Structure (SMILES) | EC50 (HBV) [µM] | CC50 (HepAD38 cells) [µM] | IC50 [1] [µM] | EC50 (HBV; [3]) [µM] | CC50 at 6 days [2] [µM] | EC50 (HBV; Hepatitis B virus, HePAD38, 144 h, printed as number instead of class symbol) [µM]
1 | CC1Cn2ncc(C(=O)N(C)C3CC3)c2CN1C(=O)c1cc2ccccc2[nH]1 (single isomer, unassigned) [Example 71, N-cyclopropyl-5-(1H-indole-2-carbonyl)-N,6-dimethyl-4H,5H,6H,7H-pyrazolo[1,5-a]pyrazine-3-carboxamide] | < 1 | > 10 | < 5 | – | – | –
2 | CC1Cn2ncc(C(=O)NC3(COC(F)F)CC3)c2CN1C(=O)c1cc2ccccc2[nH]1 (single isomer, unassigned) [Example 132, N-{1-[(difluoromethoxy)methyl]cyclopropyl}-5-(1H-indole-2-carbonyl)-6-methyl-4H,5H,6H,7H-pyrazolo[1,5-a]pyrazine-3-carboxamide] | < 1 | > 10 | < 5 | – | – | –
3 | COCC1(N(C)C(=O)c2cnn3c2CN(C(=O)c2cc4ccccc4[nH]2)C(C)C3)CC1 (single isomer, unassigned) [Example 70, 5-(1H-indole-2-carbonyl)-N-[1-(methoxymethyl)cyclopropyl]-N,6-dimethyl-4H,5H,6H,7H-pyrazolo[1,5-a]pyrazine-3-carboxamide] | < 1 | > 10 | < 5 | – | – | –
4 | O=C(c1cc2ccccc2[nH]1)N1CCn2ncc(C(=O)N3CC4CC4C3)c2C1 (stereo not drawn) [Example 43, 2-(3-{3-azabicyclo[3.1.0]hexane-3-carbonyl}-4H,5H,6H,7H-pyrazolo[1,5-a]pyrazine-5-carbonyl)-1H-indole] | – | – | < 5 | < 100 | > 10 | –
5 | CN(C(=O)c1cnn2c1CN(C(=O)c1cc3ccccc3[nH]1)CC2)C1(CCOC(F)F)CCOCC1 [Example 128] | – | – | < 5 | 1 to 10 | > 10 | –
6 | O=C(NC1(C(F)(F)F)CCC1)c1cnn2c1CN(C(=O)c1cc3ccccc3[nH]1)CC2 [Example 106, 5-(1H-indole-2-carbonyl)-N-[1-(trifluoromethyl)cyclobutyl]-4H,5H,6H,7H-pyrazolo[1,5-a]pyrazine-3-carboxamide] | – | – | < 5 | < 1 | > 10 | –
7 | O=C(NC1(CCOC(F)F)COC1)c1cnn2c1CN(C(=O)c1cc3ccccc3[nH]1)CC2 [Example 148, N-{3-[2-(difluoromethoxy)ethyl]oxetan-3-yl}-5-(1H-indole-2-carbonyl)-4H,5H,6H,7H-pyrazolo[1,5-a]pyrazine-3-carboxamide] | – | – | < 5 | < 1 | > 10 | –
8 | O=C(c1cc2ccccc2[nH]1)N1CCn2ncc(C(=O)N3CCC(F)(F)C34CC4)c2C1 [Example 56, 2-(3-{7,7-difluoro-4-azaspiro[2.4]heptane-4-carbonyl}-4H,5H,6H,7H-pyrazolo[1,5-a]pyrazine-5-carbonyl)-1H-indole] | – | – | < 5 | < 1 | > 10 | –
9 | CN(C(=O)c1cnn2c1CN(C(=O)c1cc3c(F)c(F)ccc3[nH]1)CC2)C1(COC(F)F)CC1 [Example 21, 5-(4,5-difluoro-1H-indole-2-carbonyl)-N-{1-[(difluoromethoxy)methyl]cyclopropyl}-N-methyl-4H,5H,6H,7H-pyrazolo[1,5-a]pyrazine-3-carboxamide] | – | – | < 5 | < 1 | > 10 | –
10 | O=C(c1cc2c(F)cc(F)cc2[nH]1)N1CCn2ncc(C3CCC3)c2C1 [Example 5, 2-{3-cyclobutyl-4H,5H,6H,7H-pyrazolo[1,5-a]pyrazine-5-carbonyl}-4,6-difluoro-1H-indole] | – | – | < 5 | < 1 | > 10 | –
11 | O=C(O)c1cccc(F)c1C1CC(=O)N(c2cnn3c2CN(C(=O)c2cc4ccccc4[nH]2)CC3)C1 (stereo not drawn) [Example 88, 3-fluoro-2-{1-[5-(1H-indole-2-carbonyl)-4H,5H,6H,7H-pyrazolo[1,5-a]pyrazin-3-yl]-5-oxopyrrolidin-3-yl}benzoic Acid] | – | – | < 5 | – | > 10 | > 10
12 | CN(C(=O)c1cnn2c1CN(C(=O)c1cc3ccccc3[nH]1)CC2)C1([C@H]2OC[C@H](N)CO2)CC1 [Example 141, 5-(1H-indole-2-carbonyl)-N-methyl-N-{1-[(2r,5r)-5-amino-1,3-dioxan-2-yl]cyclopropyl}-4H,5H,6H,7H-pyrazolo[1,5-a]pyrazine-3-carboxamide] | – | – | < 5 | < 1 | > 10 | –
13 | O=C(c1cc2ccccc2[nH]1)N1CCn2ncc(C(=O)N3CCOCCC34CC4)c2C1 [Example 68, 4-[5-(1H-indole-2-carbonyl)-4H,5H,6H,7H-pyrazolo[1,5-a]pyrazine-3-carbonyl]-7-oxa-4-azaspiro[2.6]nonane] | – | – | < 5 | < 1 | > 10 | –
14 | COCC1(N(C)C(=O)c2cnn3c2CN(C(=O)c2cc4ccccc4[nH]2)C(C)C3)CC1 (single isomer, unassigned) [Example 17, 5-(1H-indole-2-carbonyl)-N-[1-(methoxymethyl)cyclopropyl]-N,6-dimethyl-4H,5H,6H,7H-pyrazolo[1,5-a]pyrazine-3-carboxamide] | – | – | 5 to 10 | < 1 | > 10 | –
15 | CCc1cc(F)cc2[nH]c(C(=O)N3CCn4ncc(C(=O)N(C)C5(COC(F)F)CC5)c4C3)cc12 [Example 22, N-{1-[(difluoromethoxy)methyl]cyclopropyl}-5-(4-ethyl-6-fluoro-1H-indole-2-carbonyl)-N-methyl-4H,5H,6H,7H-pyrazolo[1,5-a]pyrazine-3-carboxamide] | – | – | < 5 | < 1 | > 10 | –
16 | O=C(c1cc2cc(F)c(Cl)cc2[nH]1)N1CCn2ncc(C(=O)N3CCC(O)CC34CC4)c2C1 (stereo not drawn) [Example 117, 4-[5-(6-chloro-5-fluoro-1H-indole-2-carbonyl)-4H,5H,6H,7H-pyrazolo[1,5-a]pyrazine-3-carbonyl]-4-azaspiro[2.5]octan-7-ol] | – | – | < 5 | < 1 | > 10 | –
17 | O=C(NC1(COC(F)F)CC1)c1cnn2c1CN(C(=O)c1cc3cc(F)c(Cl)cc3[nH]1)CC2 [Example 92, 5-(6-chloro-5-fluoro-1H-indole-2-carbonyl)-N-{1-[(difluoromethoxy)methyl]cyclopropyl}-4H,5H,6H,7H-pyrazolo[1,5-a]pyrazine-3-carboxamide] | – | – | < 5 | < 1 | > 10 | –
